The text below walks through data of ChEMBL document CHEMBL2176908, “Structure-aided design of novel inhibitors of HIV protease based on a benzodiazepine scaffold” (J Med Chem, 2012).

Active and inactive are the calls of the source. The calls are words filed in the database; no cut-off is given here. A value given as a limit tells only on which side of the number the result lay.

In assay [1] the target is T1, Protease (Human immunodeficiency virus 1, UniProt Q9YQ12). As to the kind of experiment: Inhibition of HIV1 protease by spectrophotometric assay.
The target in assay [2] is T1, Protease. Briefly: Inhibition of HIV1 protease by double-reciprocal Lineweaver-Burk plot. Particulars: read-out: Ki(app).
Assay [3] concerns the target T2, Papain (Carica papaya) (UniProt P00784).
T2 sequence (whole entry): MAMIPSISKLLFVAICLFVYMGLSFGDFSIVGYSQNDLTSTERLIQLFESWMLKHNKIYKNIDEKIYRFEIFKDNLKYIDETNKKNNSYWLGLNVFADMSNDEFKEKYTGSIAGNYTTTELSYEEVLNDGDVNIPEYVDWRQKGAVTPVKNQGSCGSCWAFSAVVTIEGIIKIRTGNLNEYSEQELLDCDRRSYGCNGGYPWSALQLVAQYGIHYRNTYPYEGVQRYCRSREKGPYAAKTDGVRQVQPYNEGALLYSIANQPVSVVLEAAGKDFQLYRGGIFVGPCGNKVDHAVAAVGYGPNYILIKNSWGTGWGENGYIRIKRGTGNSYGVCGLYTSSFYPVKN
As to the kind of experiment: Inhibition of papaya papain by spectrofluorometry.

Assay [4] addresses Cathepsin D (Homo sapiens) (UniProt P07339). Briefly: Inhibition of human cathepsin D spectrofluorometry.

T1 sequence (Q9YQ12 whole entry): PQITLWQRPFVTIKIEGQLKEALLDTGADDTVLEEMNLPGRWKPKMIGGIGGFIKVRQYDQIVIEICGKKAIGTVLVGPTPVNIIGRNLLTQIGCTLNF
Chain of Cathepsin D (Homo sapiens) (P07339 65-162 limits assumed): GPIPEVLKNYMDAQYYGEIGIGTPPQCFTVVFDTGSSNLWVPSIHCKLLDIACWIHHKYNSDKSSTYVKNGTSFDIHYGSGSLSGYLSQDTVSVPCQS
Chain of Cathepsin D (Homo sapiens) (P07339 169-412 limits assumed): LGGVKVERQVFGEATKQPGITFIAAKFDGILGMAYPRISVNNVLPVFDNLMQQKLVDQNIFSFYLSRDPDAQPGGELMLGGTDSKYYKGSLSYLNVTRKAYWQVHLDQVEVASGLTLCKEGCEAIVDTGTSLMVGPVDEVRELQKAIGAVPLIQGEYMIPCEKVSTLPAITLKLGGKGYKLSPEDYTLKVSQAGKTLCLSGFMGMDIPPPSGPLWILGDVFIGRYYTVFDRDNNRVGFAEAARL

In turn, `CC1(C)CC(=O)C2=C(C1)Nc1ccccc1N(C(=O)C(=O)N1CC3=C(CC(C)(C)CC3=O)Nc3ccccc31)C2` displayed an IC50 in assay [1] of 200 nM. Also, the Ki in assay [2] is at most 12 nM. On the same counts, the results for `CC1(C)CC(=O)C2=C(C1)Nc1ccccc1N(C(=O)C(=O)N1c3ccccc3NC3=C(C(=O)CC(C)(C)C3)[C@H]1c1ccccc1)[C@H]2c1ccccc1` are above 1000 nM and at most 12 nM. Take `O=C1CC(c2ccccc2)CC2=C1C(c1ccccc1)N(C(=O)C(=O)N1c3ccccc3NC3=C(C(=O)CC(c4ccccc4)C3)C1c1ccccc1)c1ccccc1N2` (mixture of isomers): inhibition in assay [1] was half-maximal at 60 nM (IC50). The Ki in assay [2] is at most 12 nM. The like results for `O=C1CC(c2ccccc2)CC2=C1C(c1ccccc1)Nc1ccccc1N2` (mixture of isomers) were, in that order, 20000 nM and at most 12 nM.

Consider `COc1cc([C@@H]2Nc3ccccc3NC3=C2C(=O)C[C@@H](c2ccccc2)C3)cc(Cl)c1O` (mixture of isomers), for which the IC50 in assay [1] is 4300 nM. Besides, the Ki in assay [2] was at most 12 nM. Turning to `CC1(C)CC(=O)C2=C(C1)Nc1ccccc1N(C(=O)C(F)(F)C(=O)N1c3ccccc3NC3=C(C(=O)CC(C)(C)C3)C1c1ccccc1)C2c1ccccc1` (mixture of isomers), half-maximal inhibition in assay [1] (IC50) was put at 300 nM. Moreover, the Ki in assay [2] is at most 12 nM. In assay [1], `CC1(C)CC(=O)C2=C(C1)Nc1ccccc1N(C(=O)C(=O)N1c3ccccc3NC3=C(C(=O)CC(C)(C)C3)C1c1ccccc1)C2c1ccccc1` (mixture of isomers; 5) showed an IC50 of 30 nM. Also, the Ki in assay [2] is at most 12 nM. The compound `CC1(C)CC(=O)C2=C(C1)Nc1ccccc1N(C(=O)C(=O)N1c3ccccc3NC3=C(C(=O)CC(C)(C)C3)C1c1ccccc1)C2c1ccccc1` (mixture of isomers; 5a) [listing 1 of 2 here] returned an IC50 in assay [1] of 30 nM.

Turning to `CC1(C)CC(=O)C2=C(C1)Nc1ccccc1N(C(=O)C(=O)N1c3ccccc3NC3=C(C(=O)CC(C)(C)C3)C1c1ccccc1)C2c1ccccc1` (mixture of isomers; 5a) [listing 2 of 2 here], the inhibition result in assay [3] and in assay [4] was “inactive” each time. `CC1(C)CC(=O)C2=C(C1)Nc1ccccc1N(C(=O)C(=O)N1c3ccccc3NC3=C(C(=O)CC(C)(C)C3)C1c1ccccc1)C2` (racemic) came in with an IC50 in assay [1] of 100 nM. The Ki in assay [2] was at most 12 nM. The like results for `CC1(C)CC(=O)C2=C(C1)Nc1ccccc1NC2c1ccccc1` (racemic) were, in that order, 110000 nM and at most 12 nM.

As a reminder, the IC50 is the midpoint of a concentration-inhibition curve.
